Source: the supplement of paper PMC10307832

How the values were obtained:
Assay in all cases: relative viability (nuclei count vs DMSO), 5 days (fraction); higher = more cells survive
Motesanib + Linsitinib = compound: CC1(C)CNc2cc(NC(=O)c3cccnc3NCc3ccncc3)ccc21 [Motesanib] + C[C@]1(O)C[C@@H](c2nc(-c3ccc4ccc(-c5ccccc5)nc4c3)c3c(N)nccn32)C1 [Linsitinib] (partner 1 µM)
Method in brief: (§1)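 A single step with final 0.05% Triton X-100, 1% formaldehyde and 1 ug/ml Hoechst fixed the cells and stained nuclei 5 days after treatment. Lung cancer cell lines in 1536-well plates had been treated by pin tool the day after seeding with one drug alone or a fixed anchor-drug dose plus five library-drug doses (not always all listed) in √10 steps, and nuclei were counted on 4× images. Relative viability is the ratio of nuclei in treated wells to nuclei in vehicle wells, taken as the median of duplicate plates.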

[1] = compound: C[C@@]1(C(=O)Nc2ccc(F)nc2)CCCN1c1nc(Nc2cc(C3CC3)n[nH]2)c2cccn2n1 + C[C@@H](Oc1cc(-c2cnn(C3CCNCC3)c2)cnc1N)c1c(Cl)ccc(F)c1Cl [Crizotinib] (partner 1 µM)
Method in brief: as §1

[2] = compound: C[C@@]1(C(=O)Nc2ccc(F)nc2)CCCN1c1nc(Nc2cc(C3CC3)n[nH]2)c2cccn2n1 + Nc1nc2[nH]cc(CCc3ccc(C(=O)N[C@@H](CCC(=O)O)C(=O)O)cc3)c2c(=O)[nH]1 [Pemetrexed] (partner 0.2 µM)
Method in brief: as §1

[3] = compound: C[C@@]1(C(=O)Nc2ccc(F)nc2)CCCN1c1nc(Nc2cc(C3CC3)n[nH]2)c2cccn2n1 + O=C(c1cc(Cc2n[nH]c(=O)c3ccccc23)ccc1F)N1CCN(C(=O)C2CC2)CC1 [Olaparib] (partner 8 µM)
Method in brief: as §1

| Cell Line | relative viability (Motesanib + Linsitinib; first compound 0.01 µM) | relative viability (Motesanib + Linsitinib; first compound 0.03162 µM) | relative viability (Motesanib + Linsitinib; first compound 0.1 µM) | relative viability (Motesanib + Linsitinib; first compound 0.3162 µM) | relative viability (Motesanib + Linsitinib; first compound 1 µM) | relative viability ([1]; first compound 0.04 µM) | relative viability ([1]; first compound 0.1265 µM) | relative viability ([1]; first compound 0.4 µM) | relative viability ([1]; first compound 1.265 µM) | relative viability ([2]; first compound 0.04 µM) | relative viability ([2]; first compound 0.1265 µM) | relative viability ([2]; first compound 0.4 µM) | relative viability ([2]; first compound 1.265 µM) | relative viability ([3]; first compound 0.04 µM) | relative viability ([3]; first compound 0.1265 µM) | relative viability ([3]; first compound 0.4 µM) | relative viability ([3]; first compound 1.265 µM) |
| --- | --- | --- | --- | --- | --- | --- | --- | --- | --- | --- | --- | --- | --- | --- | --- | --- | --- |
| NCI-H1755 | 1.02 | 0.999 | 1.03 | 1.02 | 1.02 | 0.919 | 0.793 | 0.756 | 0.836 | 0.444 | 0.408 | 0.39 | 0.377 | 0.93 | 0.73 | 0.759 | 0.851 |
| HCC-78 | 0.498 | 0.481 | 0.541 | 0.705 | 0.584 | 0.31 | 0.212 | 0.216 | 0.307 | 0.898 | 0.898 | 0.913 | 0.922 | 0.661 | 1.12 | 0.375 | 0.427 |
| IA-LM | 0.514 | 0.627 | 0.594 | 0.482 | 0.46 | 0.68 | 0.983 | 0.646 | 0.456 | – | – | – | – | 0.835 | 0.81 | 0.658 | 0.719 |
| NCI-H322M | 1.03 | 0.91 | 0.913 | 0.92 | 0.98 | 1.04 | 0.75 | 0.613 | 1.15 | 0.63 | 0.525 | 0.52 | 0.537 | 0.473 | 0.552 | 0.596 | 0.664 |
| NCI-H3122 | 0.986 | 0.961 | 0.991 | 1.01 | 0.965 | 0.212 | 0.2 | 0.182 | 0.222 | 0.202 | 0.175 | 0.178 | 0.18 | 0.633 | 0.571 | 0.581 | 0.723 |
| COR-L23 | 0.943 | 0.862 | 0.92 | 1.09 | 0.905 | 0.737 | 0.653 | 0.494 | 0.333 | 0.203 | 0.198 | 0.173 | 0.183 | 0.315 | 0.367 | 0.234 | 0.188 |
| NCI-H2087 | 0.885 | 1.03 | 1.16 | 0.998 | 1.1 | 0.88 | 1.06 | 0.699 | 0.613 | 0.669 | 0.696 | 0.639 | 0.668 | 0.593 | 0.483 | 0.369 | 0.482 |
| LC-2-ad | 0.828 | 0.834 | 0.858 | 0.881 | 0.766 | 0.448 | 0.387 | 0.349 | 0.304 | 0.28 | 0.242 | 0.263 | 0.211 | 0.676 | 0.664 | 0.581 | 0.492 |
| NCI-H1915 | 1.09 | 1.19 | 1.11 | 1.16 | 1.08 | 0.932 | 0.874 | 0.898 | 0.952 | 0.52 | 0.46 | 0.48 | 0.529 | 0.266 | 0.257 | 0.242 | 0.257 |
| NCI-H1793 | 0.877 | 0.802 | 0.796 | 0.793 | 0.76 | – | – | – | – | 0.644 | 0.825 | 0.634 | 0.508 | 0.751 | 0.668 | 0.475 | 0.772 |
| NCI-H2023 | 0.756 | 0.695 | 0.715 | 0.587 | 0.643 | 0.467 | 0.424 | 0.318 | 0.119 | 0.252 | 0.137 | 0.152 | 0.0911 | 0.456 | 0.422 | 0.333 | 0.122 |
| ChaGo-K-1 | – | – | – | – | – | 0.989 | 0.644 | 1.01 | 0.791 | 0.252 | 0.253 | 0.273 | 0.258 | 0.414 | 0.398 | 0.402 | 0.422 |
| NCI-H2342 | – | – | – | – | – | – | – | – | – | 0.819 | 0.725 | 0.579 | 0.664 | 0.438 | 0.449 | 0.336 | 0.329 |
| NCI-H1299 | 0.989 | 0.966 | 1.02 | 0.977 | 1.07 | 0.963 | 0.956 | 0.97 | 0.96 | – | – | – | – | 0.976 | 0.97 | 0.887 | 0.964 |
| NCI-H1650 | – | – | – | – | – | 0.966 | 0.813 | 0.9 | 0.366 | 0.38 | 0.29 | 0.334 | 0.319 | 0.692 | 0.846 | 0.678 | 0.729 |
| SW 900 | – | – | – | – | – | – | – | – | – | 0.439 | 0.492 | 0.476 | 0.467 | 1.02 | 0.895 | 0.721 | 0.717 |
| NCI-H727 | 0.3 | 0.329 | 0.304 | 0.292 | 0.15 | 0.687 | 0.436 | 0.259 | 0.211 | – | – | – | – | 0.746 | 0.506 | 0.476 | 0.416 |
| NCI-H1648 | – | – | – | – | – | – | – | – | – | 0.661 | 0.606 | 0.624 | 0.637 | 0.446 | 0.746 | 0.422 | 0.7 |
| NCI-H522 | – | – | – | – | – | – | – | – | – | 0.832 | 1.25 | 0.706 | 0.933 | 0.66 | 0.588 | 0.615 | 0.596 |
| NCI-H1395 | 0.992 | 1.03 | 1 | 1.11 | 1.35 | – | – | – | – | 0.89 | 0.411 | 0.879 | 0.868 | 0.505 | 0.437 | 0.408 | 0.497 |
| A549 | 0.532 | 0.633 | 0.571 | 0.624 | 0.773 | 0.52 | 0.402 | 0.248 | 0.089 | – | – | – | – | 0.293 | 0.17 | 0.148 | 0.244 |
| NCI-H2170 | – | – | – | – | – | 1.09 | 1.11 | 1.03 | 1.27 | 0.278 | 0.236 | 0.267 | 0.251 | 0.568 | 0.556 | 0.488 | 0.601 |
| NCI-H1563 | 1.26 | 1.19 | 1.21 | 1.14 | 1.21 | 0.829 | 0.91 | 0.947 | 0.828 | 0.92 | 0.708 | 0.73 | 0.662 | – | – | – | – |
| ABC-1 | 1.01 | 0.891 | 0.752 | 0.587 | 0.774 | 1.01 | 0.695 | 0.7 | 0.272 | – | – | – | – | 0.664 | 0.584 | 0.774 | 0.668 |
